Reference: the supplement of paper PMC10307832

These cell lines were tested with CCCS(=O)(=O)Nc1ccc(F)c(C(=O)c2c[nH]c3ncc(-c4ccc(Cl)cc4)cc23)c1F [Vemurafenib] + Cc1nc(NC(=O)N2CCC[C@H]2C(N)=O)sc1-c1ccnc(C(C)(C)C(F)(F)F)c1 [Alpelisib] (partner 2 µM) (assay: relative viability (nuclei count vs DMSO), 5 days (fraction); higher = more cells survive). Settings: first compound 0.03162 µM.
Method in brief: (§1)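 After 5 days of treatment, lung cancer cells in 1536-well plates were fixed and stained in a single step (final 0.05% Triton X-100, 1% formaldehyde, 1 ug/ml Hoechst) and their nuclei counted on 4× images. Treatment had been applied by pin tool the day after seeding as one drug alone or as a fixed anchor-drug dose with five library-drug doses (not always all listed) in √10 steps. Relative viability is the nuclei count of treated wells divided by that of vehicle wells, and values are medians of duplicate plates.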

Cell Line | relative viability
NCI-H1734 | 0.598
LCLC-103H | 0.901
Calu-6 | 0.975
LU99A | 0.518
NCI-H460 | 0.349
SK-LU-1 | 0.996
COR-L23 | 0.706
HCC-15 | 0.864
NCI-H1944 | 0.811
EMC-BAC-2 | 0.704
NCI-H1395 | 1.01
LC-2-ad | 0.831
NCI-H2085 | 0.956
NCI-H727 | 0.519
NCI-H647 | 0.898
HARA | 0.801
NCI-H3122 | 0.814
NCI-H358 | 0.872

Cell Line | relative viability
CAL-12T | 1.07
COR-L 105 | 0.936
LCLC-97TM1 | 0.26
NCI-H520 | 0.979
EBC-1 | 0.835
NCI-H2228 | 0.964
NCI-H23 | 0.626
HCC-827 | 0.959
NCI-H2347 | 1.01
A549 | 0.568
IA-LM | 0.824
LXF-289 | 1.02
NCI-H1666 | 0.872
RERF-LC-KJ | 0.583
NCI-H650 | 0.954
NCI-H322M | 0.845
NCI-H596 | 0.526
201T | 0.974

Same assay, conditions: first compound 0.1 µM

Cell Line | relative viability
NCI-H1734 | 0.7
LCLC-103H | 0.883
Calu-6 | 0.891
LU99A | 0.486
NCI-H460 | 0.357
SK-LU-1 | 0.96
COR-L23 | 0.693
HCC-15 | 0.892
NCI-H1944 | 0.572
EMC-BAC-2 | 0.657
NCI-H1395 | 1.01
LC-2-ad | 0.557
NCI-H2085 | 0.826
NCI-H727 | 0.49
NCI-H647 | 1.12
NCI-H3122 | 0.761
CAL-12T | 1.21
LCLC-97TM1 | 0.233
NCI-H520 | 1.05
EBC-1 | 0.833
NCI-H2228 | 0.752
NCI-H23 | 0.642
NCI-H2347 | 1.02
A549 | 0.713
IA-LM | 0.81
LXF-289 | 1.02
RERF-LC-KJ | 0.686
NCI-H650 | 1.12
NCI-H596 | 0.48
201T | 0.96

Same assay, conditions: first compound 0.3162 µM

Cell Line | relative viability
NCI-H1734 | 0.602
LCLC-103H | 1.02
Calu-6 | 0.817
LU99A | 0.52
NCI-H460 | 0.631
SK-LU-1 | 0.682
COR-L23 | 0.687
HCC-15 | 0.874
NCI-H1944 | 0.85
EMC-BAC-2 | 0.704
LC-2-ad | 0.867
NCI-H2085 | 0.902
NCI-H727 | 0.849
NCI-H647 | 0.995
HARA | 0.879
NCI-H3122 | 0.896
NCI-H358 | 1.16
CAL-12T | 1.4

Cell Line | relative viability
COR-L 105 | 1.11
LCLC-97TM1 | 0.275
NCI-H520 | 0.94
EBC-1 | 0.805
NCI-H2228 | 0.905
NCI-H23 | 0.912
HCC-827 | 1.01
NCI-H2347 | 0.757
A549 | 0.772
IA-LM | 0.777
LXF-289 | 1.05
NCI-H1666 | 1.07
RERF-LC-KJ | 0.873
NCI-H650 | 0.621
NCI-H322M | 0.872
NCI-H596 | 0.475
201T | 1.05

Same assay, conditions: first compound 1 µM

Cell Line | relative viability
NCI-H1734 | 0.603
LCLC-103H | 1.04
Calu-6 | 0.904
LU99A | 0.423
NCI-H460 | 0.593
SK-LU-1 | 0.758
COR-L23 | 0.78
HCC-15 | 0.881
NCI-H1944 | 0.837
EMC-BAC-2 | 0.698
NCI-H1395 | 1.09
LC-2-ad | 0.877
NCI-H2085 | 1
NCI-H727 | 0.574
NCI-H647 | 0.891
HARA | 0.823
NCI-H3122 | 0.862
NCI-H358 | 0.809

Cell Line | relative viability
CAL-12T | 1.33
COR-L 105 | 0.839
LCLC-97TM1 | 0.262
NCI-H520 | 0.793
EBC-1 | 0.834
NCI-H2228 | 0.627
NCI-H23 | 0.664
HCC-827 | 0.9
NCI-H2347 | 1.04
A549 | 0.867
IA-LM | 0.548
LXF-289 | 1.03
NCI-H1666 | 0.965
RERF-LC-KJ | 0.771
NCI-H650 | 0.781
NCI-H322M | 0.707
NCI-H596 | 0.42
201T | 0.981

What follows are cell lines tested with CCCS(=O)(=O)Nc1ccc(F)c(C(=O)c2c[nH]c3ncc(-c4ccc(Cl)cc4)cc23)c1F [Vemurafenib] + O=C(c1cc(Cc2n[nH]c(=O)c3ccccc23)ccc1F)N1CCN(C(=O)C2CC2)CC1 [Olaparib] (partner 8 µM) in the same assay as above. Settings: first compound 0.03162 µM.
Method in brief: as §1

Cell Line | relative viability
NCI-H1734 | 0.55
LCLC-103H | 0.644
LU99A | 0.245
NCI-H460 | 0.44
SK-LU-1 | 0.368
COR-L23 | 0.332
HCC-15 | 0.699
NCI-H1944 | 0.426
EMC-BAC-2 | 0.444
NCI-H1395 | 0.405
LC-2-ad | 0.691
NCI-H2085 | 0.737
NCI-H727 | 0.748
NCI-H647 | 0.605
HARA | 0.761
NCI-H3122 | 0.63
NCI-H358 | 0.539
CAL-12T | 0.686
COR-L 105 | 0.617
NCI-H520 | 0.284
